Test results taken from patent US20250170120A1, “ALLOSTERIC STING MODULATORS AND METHODS OF USE” (THE BOARD OF REGENTS OF THE UNIVERSITY OF TEXAS SYSTEM, priority 2022, published 2025).

Legend:
human STING [1] = biological target: human STING (Homo sapiens, UniProt Q86WV6); conditions: cited from earlier work
STING [2] = biological target: T1, STING (Homo sapiens, UniProt Q86WV6, G230A/H232R/R293Q/R71H); assay: cGAMP dose-response IFN induction in the presence of increasing compound concentrations; type: cell-based; conditions: for cGAMP induced IFN induction in the presence of increasing concentrations of compound: FIGS. 16A-16D
T1 construct: host or cells: THP-1 / THP1-Dual / THP1-Lucia ISG cells
Description: Compounds UT009, UT019, UT073 and UT122 were tested for their ability to interfere with cGAMP induced STING signaling. FIGS. 16A-16D show dose response plots of cGAMP induced IFN induction in the presence of increasing concentrations of each compound.
(§1) Compounds UT017, UT018, UT019 and UT0122 were tested for their ability to interfere with STING signaling. Interferon production in the presence of increasing concentrations of UT017, UT018, UT019 or UT0122 were measured in THP-1 cell lines under basal conditions. […] Compound UT0122 was further tested in THP1-Lucia™ ISG cells for interferon production at varying concentration, in the presence of an increasing dose of a STING agonist cGAMP.

STING [3] = biological target: T1, STING; assay: STING pathway activity in THP1-Dual/THP-1 cells upon cGAMP or MSA-2 stimulation (luciferase/interferon readout); type: cell-based; conditions: THP-1 cells; for inhibition at 10 µM: 10 μM compound, cGAMP (100 μM) or MSA-2 (10 μM) stimulation; for Induction of interferon production in the presence of MSA2: 10 μM MSA2; for Induction of interferon production in the presence of MSA2 / Interferon production in the presence of cGAMP: increasing concentrations of compound; for Interferon production in the presence of cGAMP: 100 μM cGAMP
Text: (§2) Methods of measuring STING activity and by extension, the activity of the compounds discussed herein, are known in the art. As an example, the STING pathway activity may be evaluated using reporter cell lines where a reporter gene (i.e., luciferase, GFP) is expressed under direct or indirect control of interferon response elements. For example, in an exemplary embodiment, the STING pathway can be measured using THP1-Dual™ cells (InvivoGen) which express the Lucia gene (a secreted luciferase reporter gene) under the control of an ISG54 minimal promoter in conjunction with five IFN-stimulated response elements. The STING pathway, when activated, stimulates interferon release which, in this model, will increase luciferase expression in a detectable manner. When inhibited, interferon release will be decreased, reducing luciferase expression in a detectable manner. The compounds can optionally be tested in the presence of external stimulation (i.e., using cGAMP, a natural agonist of STING, or MSA-2).
The STING pathway activity was evaluated in THP1-Dual™ cells (Invivogen). […] After incubating at 37° C. for 16 hours, the luciferase activity was measured by QUANTI-Luc™ (Invivogen).

human STING [4] = biological target: T2, human STING (Homo sapiens, UniProt Q86WV6, H232R); assay: Cryo-EM structure of human STING in complex with compound; type: binding
T2 construct: human STING residues 1-343, excluding the C-terminal tail; T6SS immunity protein 3 (Tsi3) from Pseudomonas aeruginosa (C, cleaved yes); human rhinovirus 3C protease cleavage site (C); made in house; host or cells: HEK293F cells (pEZT-BM vector)
Description: Cryo-EM data collection and image processing. Purified wild type human STING at 50 μM were incubated with cGAMP at 100 μM and C53 at 100 μM for formation of the protein/ligands complex. The complex was purified using a Superose 6 10/300 gel filtration column (GE healthcare) in buffer C. Peak fractions were collected and concentrated to 2.9 mg/ml. Additional cGAMP (100 μM) and C53 (100 μM) were added to ensure saturation of the protein by the ligands. The sample was applied to a glow-discharged Quantifoil R1.2/1.3 300-mesh gold holey carbon grid (Quantifoil, Micro Tools GmbH, Germany), blotted under 100% humidity at 4° C. and plunged into liquid ethane using a Mark IV Vitrobot (FEI).
Micrographs were collected on a Titan Krios microscope (FEI) with a K3 Summit direct electron detector (Gatan) in the super-resolution counting mode operated at 300 kV. The slit width of the GIF-Quantum energy filter was set to 20 eV. The nominal magnification was 81,000× and the pixel size of 1.08 Å. Micrographs were dose-fractioned into 36 frames with a total exposure time of 7.2 s at the dose rate of 1.6 e^−/Å^2/frame in the correlated double sampling (CDS) mode. Movie frames were motion-corrected and dose-weighted using the Motioncorr2 program (version 1.2). GCTF 1.06 was used for CTF correction. […] Local resolution was calculated in RELION (FIG. 6B). […]

STING [5] = biological target: T1, STING; assay: Interferon production in THP-1 cells under basal conditions (no external stimulation); type: cell-based; conditions: for Comparative antagonistic effect among UT017, UT018, UT019, UT0122 / Relative induction of interferon production under basal conditions: THP-1 cell lines, basal conditions; for Relative induction of interferon production under basal conditions: increasing concentrations
Text: as §2, §1
The STING pathway activity was evaluated in THP1-Dual™ cells (Invivogen). 1.5×10^5 THP1-Dual™ cells were seeded in 96-well plates and treated with the test compound followed by cGAMP (100 uM) or MSA-2 (10 uM, Science 2020, 369, eaba6098) 2 hours later. After incubating at 37° C. for 16 hours, the luciferase activity was measured by QUANTI-Luc™ (Invivogen).

T1 sequence (Q86WV6 whole entry R71H/G230A/H232R/R293Q): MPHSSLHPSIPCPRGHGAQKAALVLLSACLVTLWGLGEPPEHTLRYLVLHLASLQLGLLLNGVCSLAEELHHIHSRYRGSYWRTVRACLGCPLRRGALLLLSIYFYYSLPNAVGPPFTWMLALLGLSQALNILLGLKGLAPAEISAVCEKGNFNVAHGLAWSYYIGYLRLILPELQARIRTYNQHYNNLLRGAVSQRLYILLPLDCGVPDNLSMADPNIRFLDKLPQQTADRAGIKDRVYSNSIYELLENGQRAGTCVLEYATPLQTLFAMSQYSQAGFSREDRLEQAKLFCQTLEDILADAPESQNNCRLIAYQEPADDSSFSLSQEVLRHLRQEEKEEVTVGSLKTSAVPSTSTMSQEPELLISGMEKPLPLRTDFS
Sequence of human STING (Homo sapiens, UniProt Q86WV6) (Q86WV6 whole entry H232R): as the sequence (Q86WV6 whole entry R71H/G230A/H232R/R293Q) above, with H71R, A230G, Q293R counted along it
T2 sequence (Q86WV6 1-343 H232R): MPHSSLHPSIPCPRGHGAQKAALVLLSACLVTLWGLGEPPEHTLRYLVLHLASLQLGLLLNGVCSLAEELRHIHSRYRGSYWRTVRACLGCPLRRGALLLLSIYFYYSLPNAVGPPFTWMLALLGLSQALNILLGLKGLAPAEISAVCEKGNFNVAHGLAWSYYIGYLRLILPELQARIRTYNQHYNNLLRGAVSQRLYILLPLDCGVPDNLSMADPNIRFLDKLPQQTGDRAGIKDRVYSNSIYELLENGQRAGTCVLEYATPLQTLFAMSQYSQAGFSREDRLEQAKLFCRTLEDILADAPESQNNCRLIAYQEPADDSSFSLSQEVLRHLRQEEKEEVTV

Structure (SMILES)	Activation of human STING (human STING [1])	cGAMP induced IFN induction in the presence of increasing concentrations of compound (STING [2])	inhibition at 10 µM (STING [3]) [%]	Induction of interferon production in the presence of MSA2 (STING [3])	Interferon production in the presence of cGAMP (STING [3])	Binding site in human STING (cryo-EM) (human STING [4])	inhibition at 32 µM (STING [5]; 32 μM compound, no external stimulation, THP-1 cells) [%]	Comparative antagonistic effect among UT017, UT018, UT019, UT0122 (STING [5])	Relative induction of interferon production under basal conditions (STING [5])	Induction of interferon by cGAMP (STING [2]; THP1-Lucia ISG cells, varying compound concentration, increasing dose of cGAMP)
Cc1ccc2c(=O)c3cccc(CC(=O)O)c3oc2c1C [DMXAA, 5,6-dimethylxanthenone-4-acetic acid]	does not activate human STING	–	–	–	–	–	–	–	–	–
CC1(C)C(=O)N(Cc2c(F)cccc2C(F)(F)F)c2cc(C(=O)NCc3c(F)cc(F)cc3F)ccc21 [UT009, 1-(2-fluoro-6-(trifluoromethyl)benzyl)-3,3-dimethyl-2-oxo-N-(2,4,6-trifluorobenzyl)indoline-6-carboxamide]	–	dose-dependent suppression of interferon production	> 50	inhibited the induction of interferon production in a dose dependent manner	reduction in interferon production with increasing concentration	bind at the same binding pocket as C53	–	–	–	–
CC1(C)C(=O)N(Cc2c(F)cccc2Cl)c2cc(CNS(=O)(=O)c3c(F)cc(F)cc3F)ccc21 [UT019, N-((1-(2-chloro-6-fluorobenzyl)-3,3-dimethyl-2-oxoindolin-6-yl)methyl)-2,4,6-trifluorobenzenesulfonamide]	–	dose-dependent suppression of interferon production	–	–	–	–	> 50	highest antagonistic effect	suppressed at the highest concentration tested	–
Cc1nn(C)c(CN2C(=O)C(C)(C)c3ccc(C(=O)NCc4cc5ccccc5[nH]4)cc32)c1Br [UT122, N-((1H-indol-2-yl)methyl)-1-((4-bromo-1,3-dimethyl-1H-pyrazol-5-yl)methyl)-3,3-dimethyl-2-oxoindoline-6-carboxamide]	–	dose-dependent suppression of interferon production	> 50	antagonistic activity with an inhibition of interferon production in a dose dependent manner	antagonistic activity with an inhibition of interferon production in a dose dependent manner	–	–	highest antagonistic effect	suppressed at the highest concentration tested	suppressed in a dose-dependent manner
